Patent US11419934B2, “Use of VDAS to enhance immunomodulating therapies against tumors” (Oncotelic Therapeutics, Inc., priority 2015, dated 2022)

Columns and labels:
[1] = test system: EMT-6 mouse mammary tumor cells; assay: antitumor activity in mice bearing subcutaneous EMT-6 mouse mammary tumor cells; assay type: in vivo
Procedure: A randomized trial was conducted to evaluate the antitumor activity of fosbretabulin tromethamine (CA4P) in mice bearing subcutaneous EMT-6 mouse mammary tumor cells in combination with other treatments. Other treatments include a combination treatment with anti-CTLA-4 antibody (ref: BE0131, Bioxcell; clone: 9H10; reactivity: mouse; isotype: Hamster IgG1; storage conditions: +4° C.).
CA4P and anti-CTLA-4 antibodies were prepared in phosphate buffered saline (PBS). CA4P was injected at the dose of 100 mg/kg. The anti-CTLA-4 antibody was injected at the dose of 10 mg/kg. The tested items were injected into the peritoneal cavity of mice (e.g. intraperitoneally, IP). The administration volume was 10 mL/kg (200 μL/mouse of 20 g) adjusted to the most recent individual body weight of the mice.
An EMT-6 cell line having an ATCC origin and a culture medium was used. The EMT-6 cell line was established from a transplantable murine mammary carcinoma that arose in a BALB/cCRGL mouse after implantation of a hyperplastic mammary alveolar nodule. EMT-6 tumor cells were grown as a monolayer at 37° C. in a humidified atmosphere (5% CO2, 95% air). The culture medium was RPMI 1640 containing 2 mM L-glutamine (ref: BE12-702F, Lonza, Verviers, Belgium) supplemented with 10% fetal bovine serum (ref: 3302, Lonza).
Healthy female Balb/C mice, 6-8 weeks old at reception, were used in the study. […]

[2] = test system: T-cell mediated immune response; conditions: J. Immunol. 2007; 178: 1573-1580; cited from earlier work

| SMILES | average tumor size (tumor volume versus time, FIG. 1) ([1]; Balb/C mice, EMT-6 tumors, CA4P 100 mg/kg IP, anti-CTLA-4 10 mg/kg IP, TWx2) | mice showing tumor regression ([1]; groups of 8 Balb/C mice, subcutaneous EMT-6 tumors, CA4P 100 mg/kg IP TWx2, anti-CTLA-4 10 mg/kg IP TWx2) | effect on T-cell mediated immune response [2] |
| --- | --- | --- | --- |
| COc1ccc(/C=C\c2cc(OC)c(OC)c(OC)c2)cc1OP(=O)(O)O.NC(CO)(CO)CO [CA4P, fosbretabulin tromethamine] | steadily increased | One of the eight |  |
| COc1cc2c(c(OC)c1OC)-c1ccc(OP(=O)(O)O)cc1[C@@H](NC(C)=O)CC2 [ZD6126] |  |  | may reduce T-cell mediated immune response |
